Values quoted from earlier work as cited in paper PMC12005229, “Final results from the phase Ia/Ib study of the novel bromodomain and extra-terminal domain inhibitor, BI 894999, in patients with advanced solid tumors or diffuse large B-cell lymphoma” (ESMO Open, 2025).

What was measured:
[1] = test system: patients with relapsed/refractory DLBCL; set-up: method as in PMID 34581757; details: in combination with venetoclax and rituximab, 39 patients with relapsed/refractory DLBCL; cited from earlier work
[2] = test system: patients with relapsed/refractory acute myeloid leukemia; set-up: method as in PMID 33934351; details: 44 patients with relapsed/refractory acute myeloid leukemia; cited from earlier work

For Cc1sc2c(c1C)C(c1ccc(Cl)cc1)=N[C@@H](CC(=O)NCCCN1CCN(C)CC1)c1nnc(C)n1-2 [RO6870810], which complete responses [1] is on record?
Its complete responses is 20.5%.

And the overall response rate [1]?
Its overall response rate is 38.5%.

For CCS(=O)(=O)Nc1ccc(Oc2ccc(F)cc2F)c(-c2cn(C)c(=O)c3[nH]ccc23)c1 [mivebresib], which “efficacy of combination with venetoclax compared with monotherapy” value [2] is on record?
Its value is “higher efficacy in the combination group”.
